Data from patent US20160375033A1, “METHODS OF TREATMENT WITH TASELISIB” (Genentech, Inc., priority 2015, published 2016).

Key:
[1] = test system: MCF7; assay: In vitro cell proliferation assay, MCF7; assay type: cell-based; conditions: Homo sapiens; MCF7 (Mut E545K)
Procedure: Efficacy of PI3K-binding compounds was measured by a cell proliferation assay employing the following protocol (Mendoza et al (2002) Cancer Res. 62:5485-5488).
The CellTiter-Glo® Luminescent Cell Viability Assay is a homogeneous method to determine the number of viable cells in culture based on quantitation of the ATP present, which signals the presence of metabolically active cells. The CellTiter-Glo® Assay is designed for use with multiwell plate formats, making it ideal for automated high-throughput screening (HTS), cell proliferation and cytotoxicity assays. […]
The assay assesses the ability of compounds to enter cells and inhibit cell proliferation. The assay principle is based on the determination of the number of viable cells present by quantitating the ATP present in a homogenous assay where addition of the Cell Titer-Glo® reagent results in cell lysis and generation of a luminescent signal through the luciferase reaction. […]
Day 5—Develop Plates, Thaw Cell Titer Glo Buffer at room temperature: Remove Cell Plates from 37° C. and equilibrate to room temperature for about 30 minutes. […] Read luminescence on Analyst HT Plate Reader (half second per well).
Cell viability assays and combination assays: Cells were seeded at 1000-2000 cells/well in 384-well plates for 16 h. […] EC50 values were calculated using Prism® 4.0 software (GraphPad, San Diego). […]

[2] = biological target: PI3K β (Homo sapiens, UniProt P42338); assay: PI3K binding assay (Ki), PI3K beta; conditions: ratio in brackets, Ki beta over Ki alpha
PI3K β, sequence (P42338 whole entry): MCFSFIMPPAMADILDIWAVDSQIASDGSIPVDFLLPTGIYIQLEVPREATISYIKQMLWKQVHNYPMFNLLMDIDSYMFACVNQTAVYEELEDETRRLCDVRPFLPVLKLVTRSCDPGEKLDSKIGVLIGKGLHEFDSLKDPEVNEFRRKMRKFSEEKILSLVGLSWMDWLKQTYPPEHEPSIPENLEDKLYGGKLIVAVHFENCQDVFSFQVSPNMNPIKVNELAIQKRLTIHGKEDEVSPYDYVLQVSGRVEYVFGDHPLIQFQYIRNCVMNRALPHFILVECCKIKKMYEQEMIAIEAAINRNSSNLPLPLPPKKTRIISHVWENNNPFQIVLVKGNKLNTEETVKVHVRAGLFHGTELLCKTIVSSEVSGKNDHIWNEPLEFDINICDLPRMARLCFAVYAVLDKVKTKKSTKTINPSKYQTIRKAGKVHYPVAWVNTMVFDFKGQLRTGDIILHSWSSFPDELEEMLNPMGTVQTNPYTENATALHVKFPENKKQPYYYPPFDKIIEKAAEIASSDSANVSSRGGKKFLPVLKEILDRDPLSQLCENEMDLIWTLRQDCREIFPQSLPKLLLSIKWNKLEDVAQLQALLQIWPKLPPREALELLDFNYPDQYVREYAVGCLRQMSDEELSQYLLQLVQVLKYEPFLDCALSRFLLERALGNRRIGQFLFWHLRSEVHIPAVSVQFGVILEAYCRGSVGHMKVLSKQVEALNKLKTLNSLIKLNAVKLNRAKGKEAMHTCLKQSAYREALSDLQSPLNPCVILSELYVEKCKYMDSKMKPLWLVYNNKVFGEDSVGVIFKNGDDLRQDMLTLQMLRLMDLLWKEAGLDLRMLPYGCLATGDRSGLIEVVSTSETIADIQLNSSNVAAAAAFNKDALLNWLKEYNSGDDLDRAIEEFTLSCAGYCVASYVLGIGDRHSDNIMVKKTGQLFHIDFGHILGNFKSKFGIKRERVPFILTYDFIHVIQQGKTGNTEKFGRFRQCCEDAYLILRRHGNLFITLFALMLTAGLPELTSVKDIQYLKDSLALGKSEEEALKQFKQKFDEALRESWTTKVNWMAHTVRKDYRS
PI3K β, sequence (P27986 whole entry partner): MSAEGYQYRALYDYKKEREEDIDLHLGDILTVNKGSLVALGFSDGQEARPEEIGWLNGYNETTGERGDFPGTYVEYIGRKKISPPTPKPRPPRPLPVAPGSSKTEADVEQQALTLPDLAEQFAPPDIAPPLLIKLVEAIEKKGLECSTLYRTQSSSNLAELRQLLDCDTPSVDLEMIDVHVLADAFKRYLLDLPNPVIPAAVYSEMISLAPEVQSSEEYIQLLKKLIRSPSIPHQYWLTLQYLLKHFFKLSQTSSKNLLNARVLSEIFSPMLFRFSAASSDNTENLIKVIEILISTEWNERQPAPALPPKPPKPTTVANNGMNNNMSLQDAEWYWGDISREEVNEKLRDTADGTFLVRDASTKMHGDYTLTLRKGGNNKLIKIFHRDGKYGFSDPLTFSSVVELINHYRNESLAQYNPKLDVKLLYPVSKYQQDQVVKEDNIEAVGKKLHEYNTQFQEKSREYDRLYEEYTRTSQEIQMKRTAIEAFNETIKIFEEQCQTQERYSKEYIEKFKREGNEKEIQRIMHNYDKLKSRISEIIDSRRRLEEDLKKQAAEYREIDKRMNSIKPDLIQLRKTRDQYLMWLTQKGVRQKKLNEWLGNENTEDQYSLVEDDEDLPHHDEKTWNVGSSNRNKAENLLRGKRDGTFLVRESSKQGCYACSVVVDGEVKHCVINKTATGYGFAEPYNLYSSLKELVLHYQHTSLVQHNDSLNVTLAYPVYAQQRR
Procedure: The compound was serially diluted in 100% DMSO. The kinase reaction was incubated for 1 h at room temperature, and the reaction was terminated by the addition of PBS. IC50 values were subsequently determined using sigmoidal dose-response curve fit (variable slope).

[3] = test system: liver p110a; assay: Liver p110a at the membrane
[4] = test system: PIK3CA mutant cell lines; assay: 4 day cell proliferation (Cell-Titer Glo) assay, PIK3CA mutant cell line panel; assay type: cell-based; conditions: 4 day assay
Procedure: Cell viability assays and combination assays: Cells were seeded at 1000-2000 cells/well in 384-well plates for 16 h. On day two, nine serial 1:2 compound dilutions were made in DMSO in a 96 well plate. The compounds were further diluted into growth media using a Rapidplate® robot (Zymark Corp., Hopkinton, Mass.). The diluted compounds were then added to quadruplicate wells in 384-well cell plates and incubated at 37° C. and 5% CO2. After 4 days, relative numbers of viable cells were measured by luminescence using Cell Titer-Glo® (Promega) according to the manufacturer's instructions and read on a Wallac Multilabel Reader® (PerkinElmer, Foster City). EC50 values were calculated using Prism® 4.0 software (GraphPad, San Diego). Drugs in combination assays were dosed starting at 4×EC50 concentrations. […] The PI3K-binding compound and chemotherapeutic agents were added simultaneously or separated by 4 hours (one before the other) in all assays.
384-well plates were seeded with 1000 to 2000 cells/well in a volume of 54 μl per well followed by incubation at 37° C. under 5% CO2 overnight (˜16 hours). […] After 4 days incubation, relative numbers of viable cells were estimated using CellTiter-Glo (Promega, Madison, Wis.) and total luminescence was measured on a Wallac Multilabel Reader (PerkinElmer, Foster City, Calif.). […]

[5] = test system: SW48 isogenic lines, PI3K alpha wild-type (parental), E545K, H1047R; assay: SW48 isogenic cell line viability assay; assay type: cell-based; conditions: SW48 parental versus E545K and H1047R
Procedure: Cell lines were obtained from the American Type Culture Collection (ATCC, VA) or from the Deutsche Sammlung von Mikroorganismen and Zellkulturen GmbH (DMSZ, Germany). […] MCF7-neo/HER2 is an in vivo selected tumor cell line developed at Genentech and derived from the parental MCF7 human breast cancer cell line.
All treatments were tested in quadruplicate.

[6] = test system: PIK3CA wildtype and mutant (E545K, H1047R) cell lines; assay: Apoptosis assay (Cell Death-Nucleosome ELISA); assay type: cell-based; conditions: PI3K mutant cells
[7] = biological target: p110 delta (Homo sapiens, UniProt O00329); assay: Western blot analysis of p110 delta; conditions: PI3K wildtype SW982 and SU-DHL-10 cells
p110 delta, sequence (O00329 whole entry): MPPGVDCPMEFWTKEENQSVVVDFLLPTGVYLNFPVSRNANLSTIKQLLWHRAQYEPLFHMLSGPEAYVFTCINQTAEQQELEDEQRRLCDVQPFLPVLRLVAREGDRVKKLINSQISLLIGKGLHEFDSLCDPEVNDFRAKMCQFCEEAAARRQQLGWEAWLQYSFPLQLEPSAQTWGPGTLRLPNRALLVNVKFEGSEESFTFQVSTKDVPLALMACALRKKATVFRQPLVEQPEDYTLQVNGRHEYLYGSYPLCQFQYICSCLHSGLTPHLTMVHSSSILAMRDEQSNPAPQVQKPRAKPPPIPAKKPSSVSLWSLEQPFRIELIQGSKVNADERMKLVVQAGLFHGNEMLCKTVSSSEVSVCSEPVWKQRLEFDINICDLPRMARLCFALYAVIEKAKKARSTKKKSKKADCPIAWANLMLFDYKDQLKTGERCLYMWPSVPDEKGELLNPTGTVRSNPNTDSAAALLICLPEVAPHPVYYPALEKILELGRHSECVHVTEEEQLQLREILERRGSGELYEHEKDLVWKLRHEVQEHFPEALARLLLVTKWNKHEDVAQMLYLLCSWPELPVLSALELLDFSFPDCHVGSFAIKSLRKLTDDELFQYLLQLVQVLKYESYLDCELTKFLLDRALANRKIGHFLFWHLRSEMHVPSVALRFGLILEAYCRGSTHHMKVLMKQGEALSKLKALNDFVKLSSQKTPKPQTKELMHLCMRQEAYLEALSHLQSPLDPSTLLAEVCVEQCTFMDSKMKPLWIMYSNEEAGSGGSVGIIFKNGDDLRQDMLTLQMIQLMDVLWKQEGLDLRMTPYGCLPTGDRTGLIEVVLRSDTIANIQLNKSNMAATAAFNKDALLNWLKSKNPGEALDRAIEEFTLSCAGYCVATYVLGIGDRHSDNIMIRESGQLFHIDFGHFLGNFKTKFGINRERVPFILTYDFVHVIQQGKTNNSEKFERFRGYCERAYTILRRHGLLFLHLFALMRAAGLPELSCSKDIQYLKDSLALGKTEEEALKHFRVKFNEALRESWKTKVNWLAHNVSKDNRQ
p110 delta, sequence (P27986 whole entry partner): as the sequence (P27986 whole entry partner) above

For `Cc1nc(-c2cn3c(n2)-c2ccc(-c4cnn(C(C)(C)C(N)=O)c4)cc2OCC3)n(C(C)C)n1` [GDC-0032, 2-(4-(2-(1-isopropyl-3-methyl-1H-1,2,4-triazol-5-yl)-5,6-dihydrobenzo[f]imidazo[1,2-d][1,4]oxazepin-9-yl)-1H-pyrazol-1-yl)-2-methylpropanamide], the IC50 [1] was 25 nM, the “(β/α)” value [2] was 31 and the “effect on liver p110a at the membrane” value [3] was “Neither taselisib or alpelisib affect liver p110a”. For the same compound, the “potency against PIK3CA mutant cancer cell lines” value [4] was “potent against cell lines harboring PI3K mutations regardless of the location of the mutation”, the “potency against PIK3CA mutant cancer cell lines” value ([4]; listed as Taselisib) was “enhanced potency in PIK3CA mutant cancer lines” and the “change of cellular potency on knock-in of mutant PI3K alpha” value [5] was “Knock-in of mutant PI3K alpha increases cellular potency”. The induction of apoptosis [6] was “induces apoptosis in PI3K mutant cells at low concentrations”, the induction of apoptosis ([6]; listed as Taselisib) was “enhanced potency in an apoptosis assay” and the “degradation or depletion of p110 delta” value [7] was “does not degrade or deplete p110 delta”.
